From PMC6934184, “Selective DNA-PKcs inhibition extends the therapeutic index of localized radiotherapy and chemotherapy” (The Journal of Clinical Investigation, 2019)

Molecular target: T1, SRPK2 (Homo sapiens, UniProt P78362)
T1 construct: purchased Thermo Fisher Scientific (Life Technologies) SelectScreen
Assay: SelectScreen Z'LYTE
Assay type: biochemical
Procedure, shortened: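 SelectScreen broad panel; activity (Z'LYTE, Adapta) plus binding formats. ATP: Km app for CSF1R Z'LYTE; 10 for CAMK1 Adapta. Readout = % per kinase.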

T1 sequence (P78362 whole entry): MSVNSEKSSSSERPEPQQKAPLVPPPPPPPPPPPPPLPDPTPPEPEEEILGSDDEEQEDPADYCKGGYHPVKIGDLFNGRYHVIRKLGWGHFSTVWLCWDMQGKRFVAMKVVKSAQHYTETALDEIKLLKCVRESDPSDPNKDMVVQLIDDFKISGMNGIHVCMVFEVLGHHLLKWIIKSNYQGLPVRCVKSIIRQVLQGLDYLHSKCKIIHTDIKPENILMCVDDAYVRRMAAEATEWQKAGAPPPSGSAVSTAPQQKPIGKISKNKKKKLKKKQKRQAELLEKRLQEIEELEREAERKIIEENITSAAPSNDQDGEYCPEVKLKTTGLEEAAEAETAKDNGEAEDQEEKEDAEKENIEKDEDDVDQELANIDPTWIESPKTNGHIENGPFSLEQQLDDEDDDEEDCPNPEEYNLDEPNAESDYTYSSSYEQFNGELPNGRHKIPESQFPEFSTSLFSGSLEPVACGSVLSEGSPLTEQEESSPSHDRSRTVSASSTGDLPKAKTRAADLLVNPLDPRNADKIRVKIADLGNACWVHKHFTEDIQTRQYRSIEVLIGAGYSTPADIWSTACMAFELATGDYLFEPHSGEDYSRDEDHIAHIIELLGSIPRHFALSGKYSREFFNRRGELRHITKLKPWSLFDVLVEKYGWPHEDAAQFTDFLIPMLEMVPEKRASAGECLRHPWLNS

For `CN(C(=O)CN1CCOCC1)c1ccc2sc3c(-c4cccc5c(=O)cc(N6CC7CCC(C6)O7)oc45)cccc3c2c1` [NU5455], the inhibition at 1 µM was 3.9%.
